Assay [1] concerns MT4. Briefly: Cytotoxicity against human MT4 cells. The class given is functional.
Assay [2] relates to Human immunodeficiency virus 2. The assay can be described thus: Antiviral activity against HIV2 ROD assessed as reduction in cytopathic effect in MT4 cells. The class given is functional, organism-based. The conditions noted are these: Human immunodeficiency virus 2, ROD.
The subject of assay [3] is MT4. The assay can be described thus: Selectivity index, EC50 against HIV2 ROD/CC50 against MT4 cells. The class given is functional, Human immunodeficiency virus 2.
Assay [4] deals with C-X-C chemokine receptor type 4 (Homo sapiens) (UniProt P61073). The assay can be described thus: Binding affinity to CXCR4 by flow cell cytometry. It counts as functional.
C-X-C chemokine receptor type 4 (Homo sapiens), sequence (P61073 whole entry): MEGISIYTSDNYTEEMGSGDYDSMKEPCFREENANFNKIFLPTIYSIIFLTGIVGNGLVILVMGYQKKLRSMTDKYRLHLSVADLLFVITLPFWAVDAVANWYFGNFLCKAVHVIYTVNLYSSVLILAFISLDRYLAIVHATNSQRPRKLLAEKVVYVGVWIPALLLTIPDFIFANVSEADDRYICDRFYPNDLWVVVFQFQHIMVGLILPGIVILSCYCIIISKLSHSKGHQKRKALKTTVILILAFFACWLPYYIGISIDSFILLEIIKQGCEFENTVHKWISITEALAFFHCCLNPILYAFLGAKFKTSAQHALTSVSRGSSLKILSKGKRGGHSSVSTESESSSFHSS
The subject of assay [5] is MT4. Briefly: Selectivity index, EC50 against HIV1 3B/CC50 against MT4 cells. The class given is functional, Human immunodeficiency virus 1.
Assay [6] concerns Human immunodeficiency virus 1. The assay can be described thus: Antiviral activity against HIV1 3B assessed as reduction in cytopathic effect in MT4 cells. The following applies: Human immunodeficiency virus 1, 3B. It counts as functional, organism-based.

Activity calls are given as the source filed them. The calls are words filed in the database; no cut-off is given here. Some results are limits rather than exact numbers.

`c1cc(CN2CCCN3CCN(CCCNCC2)CC3)ccc1CN1CCCN2CCN(CCCNCC1)CC2` registered a CC50 in assay [1] of more than 225 µM. Also, the EC50 came to 23.2 µM in assay [2] and 6.98 µM in assay [6]. Further, the Selectivity index in assay [3] is recorded as more than 10; in assay [5], more than 32. In assay [4], the outcome was Active.

Source of the values: ChEMBL document CHEMBL1137394, “Configurationally restricted bismacrocyclic CXCR4 receptor antagonists” (J Med Chem, 2006).
